{"source": "patent US9826732B2", "about": "“Composition for cryopreservation of cells and tissues” (Bio Verde Inc., priority 2008, dated 2017)", "format_in_all_cases": "cell-based", "key": {"[1]": {"tested_on": "CD34-expressing hematopoietic cells", "assay": "Cryopreservation of umbilical cord blood, CD34 flow cytometry", "conditions": "human cord blood; −80° C. for three months", "description": "Umbilical cord blood was collected from human umbilical cord by a 7 mL plastic vacuum blood sampling tube (Venoject II, Terumo Corporation) loaded with 10.5 mg anticoagulant (EDTA2Na). […] Then the cord blood was quickly thawed in a water bath at 37° C., and a sample of cord blood without dilution was analyzed with respect to the expression of the surface marker, CD34, by flow cytometry. The number of hematopoietic cells expressing CD34 was measured according to the standard method described in the literature (A. Higuchi et al., J. Biomed. Mater. Res., 68A, the fixed method of 34-42 (2004)). Thus the number of CD34-expressing hematopoietic cells was estimated according to the protocol in the manual (International Hemotherapeutics and Transplantation Society ISHAGE guideline) using Stem-Kit (Beckman-Coulter Corporation). Even after the three months of cryopreservation, number of counted cells of the CD34-expressing hematopoietic cells was estimated to be about 70% of that on the first day when the cord blood was added with the PLL succinic anhydride 63% was added by 7.5%; whereas, when the cord blood in a state of 10% DMSO solution was cryopreserved, number of the CD34-expressing hematopoietic cells was estimated to be about 20% of that on the first day."}, "[2]": {"tested_on": "L929 cells", "assay": "Toxicity test, MTT assay, 50% cell growth inhibition", "conditions": "48 hours culture with polymer", "procedure": "Toxicity test was performed on L929 cells. The cells having been suspended in a culture medium of DMEM with 10% fetal bovine serum are seeded in 96-well plates (1.0×10^3 cells/well) and cultured at 37° C. for 72 hours. Thereafter, each of ε-poly-L-lysine and the modified poly-lysines having been added with varying concentrations of succinic anhydride was added to the culture media to attain final concentrations of 0-10%."}, "[3]": {"tested_on": "L929 cells", "assay": "Thawed L929 cells seeded directly without dilution or washing, cultured 24 hours", "conditions": "thawed liquid seeded directly, no dilution nor washing, FIG. 3-1, 3-2", "description": "Meanwhile, the cryopreservation liquid containing the L929 cells was frozen, thawed and directly seeded in 12-well plates and cultured at 37° C. for 24 hours. In detail, the cells were cryopreserved in the 7.5% solution of the PLL succinic anhydride 63% and thawed as in EXAMPLE 2, except that no dilution nor washing was made for the liquid or the cells, and the liquid containing the cells was directly transferred to the plates for culturing."}, "[4]": {"tested_on": "Rat mesenchymal stem cells (RMSC)", "assay": "Cryopreservation of rat mesenchymal stem cells, survival after thawing"}}, "data": [{"smiles": "C[S+](C)[O-]", "note": "[DMSO, dimethylsulfoxide]", "values": [{"measurement": "number of CD34-expressing hematopoietic cells relative to that on the first day", "setting": "[1]", "value": "about 20%"}, {"measurement": "IC50 (50% Cell-growth-inhibition Concentration)", "setting": "[2]", "value": "2.035 ± 0.017", "unit": "%"}, {"measurement": "observation of cells after 24 hours culture", "setting": "[3]", "value": "apparently round in shape and dead"}, {"measurement": "survival rate, 6 hours later", "setting": "[4]; 6 hours after thawing", "value": "88.3 ± 1.1"}, {"measurement": "survival rate, 24 hours later", "setting": "[4]; 24 hours after thawing", "value": "92.8 ± 3.5"}, {"measurement": "survival rate, Immediately", "setting": "[4]; immediately after thawing", "value": "92.3 ± 4.3"}]}]}
